The source of these data is ChEMBL document CHEMBL5113511, “Discovery of Small-Molecule Degraders of the CDK9-Cyclin T1 Complex for Targeting Transcriptional Addiction in Prostate Cancer” (J Med Chem, 2022).

Molecules are shown by their SMILES. The source made the active and inactive calls. The rule behind the calls is not given here. Some results are limits rather than exact numbers.

What is called IC50 is the concentration that gives 50% inhibition.

Experiment [1] has as its system CWR22R. Kind of experiment: Downregulation of cyclin D1 protein expression in human 22Rv1 cells at 2 uM incubated for 24 hrs by DIA-based proteomics analysis. In kind it is functional, cell-based.
The subject of experiment [2] is CWR22R. Kind of experiment: Upregulation of […] protein expression in human 22Rv1 cells at 2 uM incubated for 24 hrs by DIA-based proteomics analysis. It is filed as functional, cell-based.
Experiment [3] deals with CWR22R. The experiment in a line: Antiproliferative activity against human 22Rv1 cells assessed as reduction in cell viability measured after 5 days by CellTiter-Glo assay. In kind it is functional, cell-based. To be noted: 22Rv1, 120 h. In general terms: Cellular ATP, detected with luciferase, serves as a proxy for viable cell number.
In experiment [4] the test system is CWR22R. Kind of experiment: Induction of cell cycle arrest in human 22Rv1 cells assessed as accumulation of cells at G1 phase at 0.3 to 1 uM incubated for 24 hrs by propidium iodide staining based flow cytometry. In kind it is functional. Particulars: dose 0.3-1 µM.
Experiment [5] concerns CWR22R. The experiment in a line: Induction of cell cycle arrest in human 22Rv1 cells assessed as accumulation of cells at sub-G1 phase at 0.3 to 1 uM incubated for 24 hrs by propidium iodide staining based flow cytometry. Particulars: dose 0.3-1 µM. In kind it is functional.
Experiment [6] deals with CWR22R. The experiment in a line: Induction of apoptosis in human 22Rv1 cells at 0.3 to 1 uM incubated for 24 hrs by AnnexinV-FITC/PI staining based flow cytometry. In kind it is functional, cell-based. To be noted: dose 0.3-1 µM. Background: A flow cytometer gives signals particle by particle.
Experiment [7] has as its target T1, Cyclin-dependent kinase 9 (Homo sapiens, UniProt P50750). The experiment in a line: Induction of HyT-mediated degradation of CDK9 in human 22Rv1 cells at 0.3 to 3 uM incubated for 24 hrs by immunoblot analysis. It is filed as cell-based. To be noted: dose 0.3-3 µM. On the technique in general: In western blotting, separated proteins are transferred to a membrane and probed.

Experiment [8] concerns the target T2, Cyclin-T1 (Homo sapiens, UniProt O60563). Kind of experiment: Induction of HyT-mediated degradation of Cyclin T1 in human 22Rv1 cells at 0.3 to 3 uM incubated for 24 hrs by immunoblot analysis. Particulars: dose 0.3-3 µM. In kind it is cell-based.
Experiment [9] concerns the target T1, Cyclin-dependent kinase 9. The experiment in a line: Induction of CDK9 degradation in human 22Rv1 cells at 3 uM incubated for 24 hrs by DIA-based proteomics analysis. It is filed as cell-based.
Experiment [10] concerns the target T2, Cyclin-T1. The experiment in a line: Induction of Cyclin T1 degradation in human 22Rv1 cells assessed as cyclin T1 level at 3 uM incubated for 24 hrs by DIA-based proteomics analysis. In kind it is cell-based.
Experiment [11] deals with CWR22R. Kind of experiment: Downregulation of CCNT1 mRNA expression in human 22Rv1 cells at 2 uM incubated for 24 hrs by transcriptome RNA-seq analysis. It is filed as functional, cell-based.
The target of experiment [12] is T1, Cyclin-dependent kinase 9. The experiment in a line: Induction of degradation of CDK9 in human 22Rv1 cells at 3 uM measured for 36 hrs by DIA-based proteomics analysis. In kind it is cell-based.
Experiment [13] concerns the target T1, Cyclin-dependent kinase 9. Kind of experiment: Induction of degradation of CDK9 in human 22Rv1 cells at 2 uM measured after 0 to 7 hrs by immunoblot analysis. In kind it is cell-based. To be noted: time 0-7 hrs.
The target in experiment [14] is T1, Cyclin-dependent kinase 9. The experiment in a line: Induction of degradation of CDK9 in human 22Rv1 cells assessed as reduction in CDK9 level at 2 uM measured after 9 hrs by immunoblot analysis. It is filed as cell-based.
For experiment [15], the target named is Cyclin-dependent kinase 1 (Homo sapiens) (UniProt P06493). The experiment in a line: Induction of CDK1 degradation in human 22Rv1 cells assessed as downregulation of CDK1 level at 3 uM measured after 12 hrs by DIA-based proteomics analysis. It is filed as cell-based.
Cyclin-dependent kinase 1 (Homo sapiens), sequence (P06493 whole entry, looked up): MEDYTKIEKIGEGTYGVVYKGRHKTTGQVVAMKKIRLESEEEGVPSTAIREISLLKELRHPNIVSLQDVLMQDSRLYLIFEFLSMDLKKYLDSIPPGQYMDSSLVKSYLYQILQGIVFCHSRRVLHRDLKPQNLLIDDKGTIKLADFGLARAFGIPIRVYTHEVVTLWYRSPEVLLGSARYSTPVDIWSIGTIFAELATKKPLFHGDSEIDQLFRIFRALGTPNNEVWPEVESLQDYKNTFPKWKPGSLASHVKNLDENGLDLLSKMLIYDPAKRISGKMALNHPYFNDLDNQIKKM
Experiment [16] addresses Cyclin-dependent kinase 4 (Homo sapiens) (UniProt P11802). The experiment in a line: Induction of CDK4 degradation in human 22Rv1 cells assessed as downregulation of CDK4 level at 3 uM measured after 12 hrs by DIA-based proteomics analysis. It is filed as cell-based.
Experiment [17] has as its target Cyclin-dependent kinase 6 (Homo sapiens) (UniProt Q00534). Kind of experiment: Induction of CDK6 degradation in human 22Rv1 cells assessed as downregulation of CDK6 level at 3 uM measured after 12 hrs by DIA-based proteomics analysis. In kind it is cell-based.
For experiment [18], the target named is Cyclin-dependent kinase 7 (Homo sapiens) (UniProt P50613). The experiment in a line: Induction of CDK7 degradation in human 22Rv1 cells assessed as downregulation of CDK7 level at 3 uM measured after 12 hrs by DIA-based proteomics analysis. It is filed as cell-based.
Cyclin-dependent kinase 7 (Homo sapiens), sequence (P50613 whole entry): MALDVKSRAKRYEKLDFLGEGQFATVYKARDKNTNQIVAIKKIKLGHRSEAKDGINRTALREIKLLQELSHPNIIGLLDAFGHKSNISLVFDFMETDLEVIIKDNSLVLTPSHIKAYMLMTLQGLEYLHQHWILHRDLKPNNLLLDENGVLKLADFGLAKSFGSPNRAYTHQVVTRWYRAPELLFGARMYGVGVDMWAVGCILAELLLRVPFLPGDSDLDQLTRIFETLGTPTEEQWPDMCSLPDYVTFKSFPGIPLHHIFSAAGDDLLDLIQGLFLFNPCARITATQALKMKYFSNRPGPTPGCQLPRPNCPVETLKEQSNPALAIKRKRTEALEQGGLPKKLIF
For experiment [19], the target named is Cyclin-dependent kinase 11B (Homo sapiens) (UniProt P21127). The experiment in a line: Induction of CDK11B degradation in human 22Rv1 cells at 3 uM measured after 36 hrs by DIA-based proteomics analysis. In kind it is cell-based.
Cyclin-dependent kinase 11B (Homo sapiens), sequence (P21127 whole entry): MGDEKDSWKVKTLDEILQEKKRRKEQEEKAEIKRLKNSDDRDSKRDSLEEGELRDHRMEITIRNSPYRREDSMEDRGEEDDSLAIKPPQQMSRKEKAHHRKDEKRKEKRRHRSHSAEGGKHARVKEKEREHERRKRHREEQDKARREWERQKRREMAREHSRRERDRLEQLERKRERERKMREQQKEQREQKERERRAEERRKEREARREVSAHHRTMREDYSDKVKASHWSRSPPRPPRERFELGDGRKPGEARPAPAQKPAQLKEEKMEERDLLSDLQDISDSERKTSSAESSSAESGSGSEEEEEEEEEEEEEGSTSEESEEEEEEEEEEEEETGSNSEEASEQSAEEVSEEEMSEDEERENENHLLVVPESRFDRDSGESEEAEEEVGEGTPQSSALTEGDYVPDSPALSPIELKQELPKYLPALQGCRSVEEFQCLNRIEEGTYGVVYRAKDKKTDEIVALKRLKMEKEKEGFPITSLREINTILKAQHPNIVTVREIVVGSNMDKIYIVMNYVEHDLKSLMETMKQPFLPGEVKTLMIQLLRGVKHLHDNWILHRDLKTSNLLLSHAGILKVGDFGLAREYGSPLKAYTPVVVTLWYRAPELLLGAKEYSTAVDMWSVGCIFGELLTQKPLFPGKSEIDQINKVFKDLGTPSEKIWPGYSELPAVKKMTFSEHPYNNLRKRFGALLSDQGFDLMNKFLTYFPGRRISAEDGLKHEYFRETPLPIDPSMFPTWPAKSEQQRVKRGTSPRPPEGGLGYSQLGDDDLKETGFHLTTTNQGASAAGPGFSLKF
In experiment [20] the target is T2, Cyclin-T1. The experiment in a line: Induction of degradation of Cyclin T1 in human 22Rv1 cells at 3 uM measured for 36 hrs by DIA-based proteomics analysis. It is filed as cell-based.
Experiment [21] concerns CWR22R. The experiment in a line: Inhibition of colony formation in human 22Rv1 cells at 100 to 200 nM treated for 14 days with replacement with fresh medium containing compound for every 48 hrs by crystal violet staining based analysis. Particulars: dose 100-200 nM, time 14.0 day. In kind it is functional, cell-based.
Experiment [22] has as its target T1, Cyclin-dependent kinase 9. Kind of experiment: Induction of CDK9 degradation in human 22Rv1 cells assessed as decrease in cyclin A2 protein expression at 3 uM measured for 36 hrs by DIA-based proteomics analysis. In kind it is cell-based.
The target in experiment [23] is T1, Cyclin-dependent kinase 9. Kind of experiment: Induction of CDK9 degradation in human 22Rv1 cells assessed as decrease in cyclin B1 protein expression at 3 uM measured for 36 hrs by DIA-based proteomics analysis. It is filed as cell-based.
In experiment [24] the target is T1, Cyclin-dependent kinase 9. Kind of experiment: Induction of CDK9 degradation in human 22Rv1 cells assessed as decrease in cyclin D1 protein expression at 3 uM measured for 36 hrs by DIA-based proteomics analysis. In kind it is cell-based.
Experiment [25] deals with T1, Cyclin-dependent kinase 9. Kind of experiment: Induction of CDK9 degradation in human 22Rv1 cells assessed as decrease in cyclin C protein expression at 3 uM measured for 36 hrs by DIA-based proteomics analysis. In kind it is cell-based.
The target in experiment [26] is T1, Cyclin-dependent kinase 9. Kind of experiment: Induction of CDK9 degradation in human 22Rv1 cells assessed as downregulation of AR protein expression at 3 uM measured for 36 hrs by DIA-based proteomics analysis. In kind it is cell-based.
The target in experiment [27] is T1, Cyclin-dependent kinase 9. The experiment in a line: Induction of CDK9 degradation in human 22Rv1 cells assessed as inhibition of Ser2 phosphorylation of RNA Pol II CTD at 0.3 to 3 uM incubated for 24 hrs by immunoblot analysis. In kind it is cell-based. Particulars: dose 0.3-3 µM.
For experiment [28], the target named is T1, Cyclin-dependent kinase 9. Kind of experiment: Induction of CDK9 degradation in human 22Rv1 cells assessed as downregulation of MCL1 protein expression at 0.3 to 3 uM incubated for 24 hrs by immunoblot analysis. It is filed as cell-based. Particulars: dose 0.3-3 µM.
Experiment [29] concerns the target T1, Cyclin-dependent kinase 9. The experiment in a line: Induction of HyT-mediated degradation of CDK9 in human 22Rv1 cells assessed as reduction in CDK9 protein level at 3 uM incubated for 24 hrs by immunoblot analysis relative to control. On the set-up: scale not given: the % may be the effect or the level left. In kind it is cell-based.
Experiment [30] concerns the target T2, Cyclin-T1. The experiment in a line: Induction of HyT-mediated degradation of Cyclin T1 in human 22Rv1 cells assessed as reduction in Cyclin T1 level at 3 uM incubated for 24 hrs by immunoblot analysis. In kind it is cell-based.
The target of experiment [31] is T2, Cyclin-T1. The experiment in a line: Induction of HyT-mediated degradation of Cyclin T1 in human 22Rv1 cells at 3 uM incubated for 24 hrs by immunoblot analysis relative to control. It is filed as cell-based.
Experiment [32] concerns the target T1, Cyclin-dependent kinase 9. The experiment in a line: Induction of HyT-mediated degradation of CDK9 in human 22Rv1 cells at 3 uM incubated for 24 hrs by immunoblot analysis relative to control. In kind it is cell-based.

T2 sequence (O60563 whole entry): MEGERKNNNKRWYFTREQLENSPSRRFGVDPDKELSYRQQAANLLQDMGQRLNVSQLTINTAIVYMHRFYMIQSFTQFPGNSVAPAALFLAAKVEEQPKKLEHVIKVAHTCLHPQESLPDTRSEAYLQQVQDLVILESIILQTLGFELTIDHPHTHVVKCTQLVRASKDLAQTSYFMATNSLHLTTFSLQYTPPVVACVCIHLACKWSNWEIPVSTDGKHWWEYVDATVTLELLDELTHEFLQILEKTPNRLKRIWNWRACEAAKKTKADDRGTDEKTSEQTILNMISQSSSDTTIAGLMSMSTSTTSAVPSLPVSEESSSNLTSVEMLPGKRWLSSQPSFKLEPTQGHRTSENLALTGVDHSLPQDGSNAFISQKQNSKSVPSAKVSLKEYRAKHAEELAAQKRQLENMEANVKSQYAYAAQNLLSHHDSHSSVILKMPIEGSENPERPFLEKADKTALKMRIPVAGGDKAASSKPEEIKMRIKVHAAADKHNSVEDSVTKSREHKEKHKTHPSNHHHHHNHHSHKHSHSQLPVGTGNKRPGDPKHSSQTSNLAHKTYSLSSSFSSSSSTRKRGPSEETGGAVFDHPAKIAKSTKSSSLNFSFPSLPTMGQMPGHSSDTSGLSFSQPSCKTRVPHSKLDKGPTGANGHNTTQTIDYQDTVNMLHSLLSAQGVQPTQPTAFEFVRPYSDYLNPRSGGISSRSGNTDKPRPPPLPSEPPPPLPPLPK
T1 sequence (P50750 whole entry): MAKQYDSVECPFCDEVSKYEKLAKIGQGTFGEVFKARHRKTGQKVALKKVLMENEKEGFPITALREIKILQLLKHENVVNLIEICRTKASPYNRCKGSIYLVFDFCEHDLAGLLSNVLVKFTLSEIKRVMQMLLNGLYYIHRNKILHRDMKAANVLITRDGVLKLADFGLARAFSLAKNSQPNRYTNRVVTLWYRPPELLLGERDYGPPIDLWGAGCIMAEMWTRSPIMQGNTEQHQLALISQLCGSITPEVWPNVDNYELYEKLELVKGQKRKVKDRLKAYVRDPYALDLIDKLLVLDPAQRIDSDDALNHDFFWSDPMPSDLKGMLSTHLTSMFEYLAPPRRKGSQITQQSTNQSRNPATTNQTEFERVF
Cyclin-dependent kinase 4 (Homo sapiens), sequence (P11802 whole entry): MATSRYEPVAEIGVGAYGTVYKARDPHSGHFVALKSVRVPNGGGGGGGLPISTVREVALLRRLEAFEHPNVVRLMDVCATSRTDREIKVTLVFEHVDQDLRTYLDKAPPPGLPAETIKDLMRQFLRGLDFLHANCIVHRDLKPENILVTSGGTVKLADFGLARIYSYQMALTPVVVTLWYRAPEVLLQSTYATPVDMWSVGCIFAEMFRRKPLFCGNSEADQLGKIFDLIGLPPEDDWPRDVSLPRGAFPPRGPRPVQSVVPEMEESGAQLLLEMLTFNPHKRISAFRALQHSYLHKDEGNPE
Cyclin-dependent kinase 6 (Homo sapiens), sequence (Q00534 whole entry): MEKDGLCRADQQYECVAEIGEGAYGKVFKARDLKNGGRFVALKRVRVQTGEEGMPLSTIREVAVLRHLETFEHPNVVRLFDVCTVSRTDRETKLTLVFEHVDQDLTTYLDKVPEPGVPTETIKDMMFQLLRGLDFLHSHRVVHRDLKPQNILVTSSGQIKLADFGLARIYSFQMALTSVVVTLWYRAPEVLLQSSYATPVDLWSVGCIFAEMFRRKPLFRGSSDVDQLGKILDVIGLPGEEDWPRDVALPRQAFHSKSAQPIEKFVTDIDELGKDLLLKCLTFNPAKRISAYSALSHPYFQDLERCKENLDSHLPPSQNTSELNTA

Take `CC(C)(C)c1cnc(CSc2cnc(NC(=O)C3CCNCC3)s2)o1` [BMS-387032]: the inhibition result with CWR22R [1] is “Active”. The outcome in the experiment with CWR22R [2], in the experiment on CWR22R [4], in the experiment on CWR22R [5] and with CWR22R [6] was Active. Also, the IC50 in the experiment with CWR22R [3] amounted to 384 nM.
Take `CC(C)[C@@H]1CC[C@@H](C)C[C@H]1OCC(=O)NCCCCN1CCC(C(=O)Nc2ncc(SCc3ncc(C(C)(C)C)o3)s2)CC1`: the result (in experiment [7]; on Cyclin-T1 [8]) was Active.
In the case of `CC(C)[C@@H]1CC[C@@H](C)C[C@H]1OCC(=O)NCCN1CCC(C(=O)Nc2ncc(SCc3ncc(C(C)(C)C)o3)s2)CC1`, the outcome (in [7]; at Cyclin-T1 [8]) was Active.
`CC(C)(C)c1cnc(CSc2cnc(NC(=O)C3CCN(CC(=O)NCCOCCOCCOCCNc4cccc5c4C(=O)N(C4CCC(=O)NC4=O)C5=O)CC3)s2)o1` (stereo not given): the outcome in experiment [9], in experiment [12], in experiment [13], in experiment [14], in experiment [15] and in experiment [16] was Active. Moreover, the result (in experiment [17]; in experiment [18]; in experiment [19]; on Cyclin-T1 [20]; with CWR22R [4]; in the experiment with CWR22R [5]) was Active. For the same molecule, the result (in the experiment on CWR22R [6]; in experiment [22]; in experiment [23]; in experiment [24]; in experiment [25]; in experiment [26]) was Active. The outcome in [27] and in experiment [28] was Active. For the same molecule, on Cyclin-T1 [10], the Activity is 40.2%. Also, the inhibition entry with CWR22R [11] and in the experiment on CWR22R [21] was “Active” throughout. Moreover, the IC50 in the experiment with CWR22R [3] was 49 nM.
`CC(C)(C)OC(=O)NC(=NCCC[C@@H](NC(=O)OC(C)(C)C)C(=O)NCCS(=O)(=O)N1CCC(C(=O)Nc2ncc(SCc3ncc(C(C)(C)C)o3)s2)CC1)NC(=O)OC(C)(C)C`: the outcome (in [7]; at Cyclin-T1 [8]) was Active.
Turning to `CC(C)[C@@H]1CC[C@@H](C)C[C@H]1OCC(=O)N1CCN(CCS(=O)(=O)N2CCC(C(=O)Nc3ncc(SCc4ncc(C(C)(C)C)o4)s3)CC2)CC1`, in [29], the Activity was more than 50%.
Turning to `CC(C)[C@@H]1CC[C@@H](C)C[C@H]1OCC(=O)NCCOCCS(=O)(=O)N1CCC(C(=O)Nc2ncc(SCc3ncc(C(C)(C)C)o3)s2)CC1`, the result (in experiment [7]; at Cyclin-T1 [30]) was Active.
On to `CC(C)(C)c1cnc(CSc2cnc(NC(=O)C3CCN(S(=O)(=O)CCNC(=O)NC45CC6CC(CC(C6)C4)C5)CC3)s2)o1`, for which the outcome (in experiment [7]; on Cyclin-T1 [8]) was Active.
Regarding `CC(C)[C@@H]1CC[C@@H](C)C[C@H]1OCC(=O)NCCCOCCS(=O)(=O)N1CCC(C(=O)Nc2ncc(SCc3ncc(C(C)(C)C)o3)s2)CC1`, the Activity (at Cyclin-T1 [31]; in [32]) was less than 40% throughout.
In the case of `CC(C)(C)c1cnc(CSc2cnc(NC(=O)C3CCN(S(=O)(=O)CCNC(=O)CC45CC6CC(CC(C6)C4)C5)CC3)s2)o1`, the outcome (in experiment [7]; at Cyclin-T1 [8]) was Active.
